From paper PMC9780888, “4-Isobutylmethcathinone—A Novel Synthetic Cathinone with High In Vitro Cytotoxicity and Strong Receptor Binding Preference of Enantiomers” (Pharmaceuticals, 2022)

Molecular target: T1, ADRB1 (beta-1 adrenergic receptor) (Homo sapiens, UniProt P08588)
T1 construct: Tango construct (TEV cleavage site and tTA, as described for the dopamine receptor plasmids); host or cells: HTLA (HEK 293-derived)
Assay: PRESTO-Tango β-arrestin 2 recruitment assay, ADRB1
Type: cell-based
Conditions: ADRB1, 500 nM
Description: The HTLA cell line was used for the PRESTO-Tango β-arrestin recruitment assay. The HTLA cells were provided as a gift from the laboratory of Bryan Roth (Roth Lab, USA). It is a human cell line derived from human embryonic kidney cells (HEK 293) stably expressing β-arrestin in a fusion with the tobacco etch virus protease (TEV) protease and the luciferase gene under the control of the transcription factor tetracycline transcriptional activator (tTA). The HTLA cells were cultured under standard incubation conditions (37 °C, 5% CO2, 95% humidity) in DMEM with 10% FBS. […]
The transfected HTLA cells were incubated for 24 h, and then 1 × 10^4 cells were seeded per well of a white 96-well clear bottom plate (Brand, Germany) in 40 μL of DMEM with 1% charcoal-stripped FBS (Thermo Fisher Scientific, USA). […] After 5 min., the luminescence was measured using a multi-mode microplate reader SpectraMax iD5 (Molecular Devices, San Jose, CA, USA) measuring the entire wavelength spectrum. All samples were measured in quadruplicates. The data were evaluated by Prism 7 software (GraphPad, […], CA, USA). […]
The error bar represents standard deviation from four replicates. The data were processed and evaluated by GraphPad Prism Software using one-way ANOVA: * p<0.05; ** p<0.01; *** […]

T1 sequence (P08588 whole entry): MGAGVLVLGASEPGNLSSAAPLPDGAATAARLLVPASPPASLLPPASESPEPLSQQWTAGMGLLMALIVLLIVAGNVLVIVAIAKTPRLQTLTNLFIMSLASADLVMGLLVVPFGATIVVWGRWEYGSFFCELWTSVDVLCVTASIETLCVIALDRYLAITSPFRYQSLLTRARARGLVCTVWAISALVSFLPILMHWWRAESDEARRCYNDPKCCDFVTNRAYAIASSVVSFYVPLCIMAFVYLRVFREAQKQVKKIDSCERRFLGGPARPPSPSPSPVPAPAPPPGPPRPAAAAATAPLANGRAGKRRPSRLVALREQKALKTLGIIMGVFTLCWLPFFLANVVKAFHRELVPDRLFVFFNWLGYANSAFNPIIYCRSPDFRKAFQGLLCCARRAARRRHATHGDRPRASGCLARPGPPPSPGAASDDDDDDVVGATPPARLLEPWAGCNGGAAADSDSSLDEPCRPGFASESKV

CNC(C)C(=O)c1ccc(CC(C)C)cc1.Cl (stereo not shown) [IBMcat, 4-isobutylmethcathinone hydrochloride]
increase in the luminescence signal: 3 fold
